Structures can show the parent of a compound that is named as a salt.

The target in experiment [1] is T1, LTD4 evoked ileal contractions (Cavia porcellus, UniProt Q2NNR5).
T1 construct: A section of terminal ileum was removed, the lumen cleaned, and the tissue divided into 2.5 cm. segments; from tissue; host or cells: terminal ileum of male Hartley guinea pigs
T1 sequence (Q2NNR5 1-340): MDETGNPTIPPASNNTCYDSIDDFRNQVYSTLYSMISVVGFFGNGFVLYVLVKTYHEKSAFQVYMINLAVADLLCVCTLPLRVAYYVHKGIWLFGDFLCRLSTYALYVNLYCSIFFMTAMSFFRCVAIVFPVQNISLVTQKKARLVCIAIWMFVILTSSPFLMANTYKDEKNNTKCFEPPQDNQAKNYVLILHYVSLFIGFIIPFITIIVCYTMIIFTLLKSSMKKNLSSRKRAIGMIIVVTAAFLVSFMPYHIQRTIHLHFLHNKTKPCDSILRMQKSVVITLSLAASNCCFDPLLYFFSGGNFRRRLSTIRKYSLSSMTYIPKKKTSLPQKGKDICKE
Kind of experiment: Antagonism of LTD4-evoked contraction of isolated guinea pig ileum (single concentration). In kind it is cell-based. Particulars: pure LTD4, 5 minute exposure, read-out: Percent Inhibition of LTD4 evoked ileal contractions; for inhibition at 1 µM: 1 × 10^-6 M; for inhibition at 3 µM: 3 × 10^-6 M; for inhibition at 10 µM: 1 × 10^-5 M. The protocol:
Male, Hartley guinea pigs weighing 200-450 grams were killed by decapitation. A section of terminal ileum was removed, the lumen cleaned, and the tissue divided into 2.5 cm. segments. The ilea were mounted in 10 ml. tissue baths containing Krebs-bicarbonate solution of the following composition in mmoles/liter: KCl, 4.6; CaCl2.2H2 O, 1.2; KH2 PO4, 1.2; MgSO4.7H2 O, 1.2; NaCl, 118.2; NaHCO3, 24.8 and dextrose, 10.0. The bath fluid was maintained at 37° C. and aerated with 95 percent oxygen and 5 percent CO2. In addition, the buffer contained 1×10^-6 M atropine to reduce ileal spontaneous activity. In studies with crude SRS-A, 1×10^-6M pyrilamine was used to mitigate the actions of histamine present along with the biologically active leukotrienes. Isometric measurements were made with a Grass FTO3C force-displacement transducer and recorded on a Grass polygraph as change in grams of force. A passive force of 0.5 g. was applied to the tissues. After an appropriate equilibration period, single submaximal control responses to either SRS-A or pure LTD4 were obtained. Following a 5 minute exposure of the ileum to an experimental drug, the control concentration of SRS-A or LTD4 was added to the tissue bath. The response of the ileum to SRS-A or LTD4 in the presence of the drug was compared to the response in the absence of the drug.
*Compounds marked with an asterisk were tested using crude SRSA as the
ileumcontracting agent; all other compounds were tested using pure

For experiment [2], the target named is T1, LTD4 evoked ileal contractions. As to the kind of experiment: LTD4 antagonism, cumulative concentration-response curves in guinea pig ileum and trachea (pA2). Type of experiment: cell-based. Particulars: 30 minute incubation with antagonist, Furchgott method. The protocol:
For some of the drugs in this series a more detailed analysis of LTD4 antagonism was made. In these experiments, cumulative concentration-response curves were obtained to LTD4 in guinea pig ileum and trachea. This was followed by a 30 minute incubation with various concentrations of the experimental drug. The concentration response curve to LTD4 was then repeated in the presence of the antagonist. Only one concentration of antagonist was used on a single tissue. KB values were calculated by the method of Furchgott [Ann. N.Y. Acad. Sci., 139, 553 (1967)]using the following equation. [formula] Dose ratio refers to the concentration of agonist required to elicit 50 percent of the maximal response (ED50) in the presence of the antagonist divided by the ED50 in the absence of the antagonist. Calculations were performed with the aid of a computer and a digital plotter.

For the molecule `CCCc1c(OCCCCCCc2nnn[nH]2)ccc(C(C)=O)c1O` [Example 9, 5-[6-(4-Acetyl-3-hydroxy-2-propylphenoxy)hexyl]-tetrazole], in experiment [1], the inhibition at 1 µM is 87% and the inhibition at 3 µM came to 100%. The same molecule had a Kb in experiment [2] of 79.4 nM.
Turning to `CCCc1c(OCCCCCCCc2nnn[nH]2)ccc(C(C)=O)c1O` [Example 10, 5-[7-(4-Acetyl-3-hydroxy-2-propylphenoxy)heptyl]-tetrazole], in experiment [1], the inhibition at 1 µM was found to be 92% and the inhibition at 3 µM came out at 95%. Further, in experiment [2], the Kb was 79.4 nM.
For `CCCc1c(OCCCCCCCCc2nnn[nH]2)ccc(C(C)=O)c1O` [Example 11, 5-[8-(4-Acetyl-3-hydroxy-2-propylphenoxy)octyl]-tetrazole], in experiment [1], the inhibition at 1 µM was 89% and the inhibition at 3 µM was found to be 100%. This molecule showed a Kb in experiment [2] of 316 nM.
For the molecule `CCCc1c(OCCCCCCCCCc2nnn[nH]2)ccc(C(C)=O)c1O` [Example 12, 5-[9-(4-Acetyl-3-hydroxy-2-propylphenoxy)nonyl]-tetrazole], in experiment [1], the inhibition at 1 µM came out at 78% and the inhibition at 3 µM was determined as 90%. The same molecule had a Kb in experiment [2] of 316 nM.
Turning to `CCCc1c(OCCCCCCCCCCc2nnn[nH]2)ccc(C(C)=O)c1O` [Example 13, 5-[10-(4-Acetyl-3-hydroxy-2-propylphenoxy)decyl]-tetrazole], in experiment [1], the inhibition at 1 µM is 76% and the inhibition at 3 µM stood at 93%. In experiment [2], this molecule had a Kb of 316 nM.
For the molecule `CCCc1c(OCCCCCc2nnn[nH]2)ccc(C(C)=O)c1O` [Example 22, 5-[5-(4-Acetyl-3-hydroxy-2-propylphenoxy)pentyl]-tetrazole], the inhibition at 3 µM in experiment [1] amounted to 87%. For the same molecule, the Kb in experiment [2] is 263 nM.
As for `CCCc1c(OCCCCCC(=O)O)ccc(C(C)=O)c1O` [Example 24, 6-(4-Acetyl-3-hydroxy-2-propylphenoxy)hexanoic acid], the inhibition at 3 µM in experiment [1] worked out at 81%. The Kb in experiment [2] was 398 nM.
Regarding `CCCc1c(OCCCCCCCCC(=O)O)ccc(C(C)=O)c1O` [Example 31, 9-(4-Acetyl-3-hydroxy-2-propylphenoxy)nonanoic acid], in experiment [1], the inhibition at 10 µM is 94% and the inhibition at 1 µM is 51%. Moreover, the Kb in experiment [2] is 2000 nM.
For the molecule `CCCc1c(OCCCCCC(=O)O)ccc(C(=O)CC)c1O` [Example 34, 6-(4-Propionyl-3-hydroxy-2-propylphenoxy)hexanoic acid], in experiment [1], the inhibition at 10 µM was determined as 88% and the inhibition at 3 µM amounted to 56%. Further, in experiment [2], the Kb is 794 nM.
Turning to `CCCc1c(OCCCCC(C)(C)c2nnn[nH]2)ccc(C(C)=O)c1O` [Example 39, 5-[5-(4-Acetyl-3-hydroxy-2-propylphenoxy)-1,1-dimethylpentyl]-tetrazole], in experiment [1], the inhibition at 1 µM came to 89%.
Turning to `CCCc1c(OC(C)CCCCC(=O)O)ccc(C(C)=O)c1O` (centres unmarked) [Example 40, 6-(4-Acetyl-3-hydroxy-2-propylphenoxy)heptanoic acid], in experiment [1], the inhibition at 10 µM was determined as 79% and the inhibition at 3 µM turned out to be 45%. Further, the Kb in experiment [2] is 1580 nM.
For `CC(=O)c1ccc(OC(C)CCCCC(=O)O)cc1O` (centres unmarked) [Example 41, 6-(4-Acetyl-3-hydroxyphenoxy)heptanoic acid], in experiment [1], the inhibition at 3 µM came to 10%.
`CCCc1c(OCCCCCCO)ccc(C(C)=O)c1O` [Example 42, 6-(4-Acetyl-3-hydroxy-2-propylphenoxy)-1-hexanol]: in experiment [1], the inhibition at 10 µM was 74% and the inhibition at 3 µM came to 46%.
Consider `CCCc1c(OCCCCc2nnn[nH]2)ccc(C(=O)c2ccccc2)c1O` [Example 43, 5-[4-(4-Benzoyl-3-hydroxy-2-propylphenoxy)butyl]-tetrazole], for which, in experiment [1], the inhibition at 1 µM was determined as 34% and the inhibition at 3 µM came to 56%.
With `CCCc1c(OCCCCC(C)(C)C(=O)OC)ccc(C(C)=O)c1O` [Example 44, Methyl 6-(4-acetyl-3-hydroxy-2-propylphenoxy)-2,2-dimethylhexanoate], the inhibition at 3 µM in experiment [1] was found to be 55%.
For `CCCc1c(OCCCCC(C)(C)C(=O)O)ccc(C(C)=O)c1O` [Example 45, 6-(4-Acetyl-3-hydroxy-2-propylphenoxy)-2,2-dimethylhexanoic acid], in experiment [1], the inhibition at 10 µM is 94% and the inhibition at 3 µM was 73%.
As to `COC(=O)C(C)(C)CCCCOc1ccc(C(C)=O)c(O)c1` [Example 46, Methyl 6-(4-acetyl-3-hydroxyphenoxy)-2,2-dimethylhexanoate], the inhibition at 10 µM in experiment [1] came out at 23%.
The same measure, in the same setting: to `CC(=O)c1ccc(OCCCCC(C)(C)C(=O)O)cc1O` [Example 47, 6-(4-Acetyl-3-hydroxyphenoxy)-2,2-dimethylhexanoic acid] belongs 22%; to `CCCc1c(OC(CCC)CCCCC(=O)O)ccc(C(C)=O)c1O` (centres unmarked) [Example 48, 6-(4-Acetyl-3-hydroxy-2-propylphenoxy)nonanoic acid], 34%.
On the same count and under the same terms, to `CCCC(CCCCC(=O)O)Oc1ccc(C(C)=O)c(O)c1` (centres unmarked) [Example 49, 6-(4-Acetyl-3-hydroxyphenoxy)nonanoic acid] belongs 18%.
For the molecule `CCCc1c(OCCCCCc2nnnn2CC(=O)O)ccc(C(C)=O)c1O` [Example 50, 5-(1H)-[5-(4-Acetyl-3-hydroxy-2-propylphenoxy)pentyl]-1-tetrazolylacetic acid], in experiment [1], the inhibition at 1 µM turned out to be 66%.
For the molecule `CCCc1c(OCCCCCc2nnn(CC(=O)O)n2)ccc(C(C)=O)c1O` [Example 51, 5-(2H)-[5-(4-acetyl-3-hydroxy-2-propylphenoxy)pentyl]-2-tetrazolylacetic acid], the inhibition at 1 µM in experiment [1] turned out to be 69%.
As for `CCCc1c(OCCCCCc2nnnn2C)ccc(C(C)=O)c1O` [Example 52, 1-Methyl-5-(1H)-[5-(4-acetyl-3-hydroxy-2-propylphenoxy)pentyl]-tetrazole], in experiment [1], the inhibition at 1 µM amounted to 38%.
In the case of `CCCc1c(OCCCCC(=O)OCC)ccc(C(C)=O)c1O` [Example 54, Ethyl 5-(4-acetyl-3-hydroxy-2-propylphenoxy)pentanoate], in experiment [1], the inhibition at 1 µM was 40% and the inhibition at 3 µM is 56%.
For `CCCc1c(OCCCCC(N)=O)ccc(C(C)=O)c1O` [Example 55, 5-(4-Acetyl-3-hydroxy-2-propylphenoxy)pentanoic acid amide], in experiment [1], the inhibition at 1 µM came to 28% and the inhibition at 3 µM stood at 59%.
In the same order, the values of `CCCc1c(OCCCCC(=O)N(C)C)ccc(C(C)=O)c1O` [Example 56, N,N-dimethyl-5-(4-acetyl-3-hydroxy-2-propylphenoxy)pentanoic acid amide] are 17% and 42%.
For `CCCc1c(OCCCCSc2nn[nH]n2)ccc(C(C)=O)c1O` [Example 57, 5-[4-(4-Acetyl-3-hydroxy-2-propylphenoxy)butanethio]-tetrazole], the inhibition at 1 µM in experiment [1] is 87%. Besides, the Kb in experiment [2] is 100 nM.
Regarding `CCCc1c(OCCCSC(=N)N)ccc(C(C)=O)c1O` [Example 60, S-[3-(4-Acetyl-3-hydroxy-2-propylphenoxy)propyl]-isothiuronium hydrobromide], in experiment [1], the inhibition at 1 µM worked out at 28% and the inhibition at 3 µM came out at 55%.
In the same order, the values of `CCCc1c(OCCCCC(=O)NO)ccc(C(C)=O)c1O` [Example 61, 5-(4-Acetyl-3-hydroxy-2-propylphenoxy)pentanehydroxamic acid] are 28% and 70%.
As to `CCCc1c(OCCCCCCSc2nn[nH]n2)ccc(C(C)=O)c1O` [Example 71, 5-[6-(4-Acetyl-3-hydroxy-2-propylphenoxy)hexanethio]-tetrazole], in experiment [1], the inhibition at 10 µM came to 100% and the inhibition at 1 µM amounted to 95%.
As for `CCCc1c(OCCCCCCCSc2nn[nH]n2)ccc(C(C)=O)c1O` [Example 72, 5-[7-(4-Acetyl-3-hydroxy-2-propylphenoxy)heptanethio]-tetrazole], the inhibition at 1 µM in experiment [1] worked out at 100%.

What is called inhibition is the percentage by which the read-out fell short of the control. In general, Kb refers to the equilibrium dissociation constant of an antagonist, usually derived from a functional assay.
